Source: the NIST ThermoML archive (doi:10.1016/j.jct.2011.10.023)
Numbers after ± are expanded uncertainties.

Details: Liquid, Vibrating tube method

CCCCCCCCCCO [decan-1-ol]
mass density [kg/m3]
Details	288.15 K	298.15 K	308.15 K	318.15 K	328.15 K	338.15 K	348.15 K	358.15 K
100 kPa	832.3 ± 2.4	825.5 ± 2.4	818.7 ± 2.4	811.9 ± 2.4	805 ± 2.4	798 ± 2.4	790.9 ± 2.4	783.6 ± 2.4
1000 kPa	832.8 ± 2.4	826 ± 2.4	819.3 ± 2.4	812.5 ± 2.4	805.7 ± 2.4	798.7 ± 2.4	791.6 ± 2.4	784.3 ± 2.4
5000 kPa	835.2 ± 2.4	828.5 ± 2.4	821.9 ± 2.4	815.3 ± 2.4	808.5 ± 2.4	801.7 ± 2.4	794.8 ± 2.4	787.6 ± 2.4
10000 kPa	838 ± 2.4	831.5 ± 2.4	825 ± 2.4	818.5 ± 2.4	811.9 ± 2.4	805.2 ± 2.4	798.5 ± 2.4	791.6 ± 2.4
15000 kPa	840.8 ± 2.4	834.4 ± 2.4	828 ± 2.4	821.7 ± 2.4	815.2 ± 2.4	808.7 ± 2.4	802 ± 2.4	795.3 ± 2.4
20000 kPa	843.5 ± 2.4	837.2 ± 2.4	830.9 ± 2.4	824.7 ± 2.4	818.3 ± 2.4	812 ± 2.4	805.5 ± 2.4	798.9 ± 2.4
25000 kPa	846.1 ± 2.4	839.8 ± 2.4	833.7 ± 2.4	827.6 ± 2.4	821.4 ± 2.4	815.1 ± 2.4	808.8 ± 2.4	802.3 ± 2.4
30000 kPa	848.6 ± 2.4	842.5 ± 2.4	836.4 ± 2.4	830.4 ± 2.4	824.3 ± 2.4	818.1 ± 2.4	811.9 ± 2.4	805.6 ± 2.4
35000 kPa	851.1 ± 2.4	845.1 ± 2.4	839.1 ± 2.4	833.2 ± 2.4	827.1 ± 2.4	821.1 ± 2.4	815 ± 2.4	808.8 ± 2.4
40000 kPa	853.5 ± 2.4	847.6 ± 2.4	841.7 ± 2.4	835.8 ± 2.4	829.9 ± 2.4	824 ± 2.4	817.9 ± 2.4	811.9 ± 2.4
45000 kPa	855.9 ± 2.4	850 ± 2.4	844.2 ± 2.4	838.5 ± 2.4	832.6 ± 2.4	826.7 ± 2.5	820.8 ± 2.5	814.8 ± 2.5
50000 kPa	858.2 ± 2.4	852.4 ± 2.4	846.6 ± 2.4	841 ± 2.5	835.2 ± 2.5	829.4 ± 2.5	823.6 ± 2.5	817.7 ± 2.5
55000 kPa	860.4 ± 2.4	854.7 ± 2.5	849 ± 2.5	843.4 ± 2.5	837.7 ± 2.5	832.1 ± 2.5	826.4 ± 2.5	820.5 ± 2.5
60000 kPa	862.7 ± 2.5	856.8 ± 2.5	851.2 ± 2.5	845.7 ± 2.5	840.2 ± 2.5	834.5 ± 2.5	829 ± 2.5	822.9 ± 2.5

CCO [ethanol]
mass density [kg/m3]
Details	278.15 K	288.15 K	298.15 K	308.15 K	318.15 K	328.15 K	338.15 K	348.15 K	358.15 K
100 kPa	801.9 ± 2.4	793.4 ± 2.4	784.8 ± 2.4	776.1 ± 2.4	767.4 ± 2.4	758.4 ± 2.4	749.1 ± 2.4	739.5 ± 2.4	729.5 ± 2.4
1000 kPa	802.7 ± 2.4	794.2 ± 2.4	785.6 ± 2.4	777 ± 2.4	768.3 ± 2.4	759.4 ± 2.4	750.2 ± 2.4	740.7 ± 2.4	730.7 ± 2.4
5000 kPa	805.9 ± 2.4	797.6 ± 2.4	789.3 ± 2.4	780.9 ± 2.4	772.4 ± 2.4	763.7 ± 2.4	754.8 ± 2.4	745.6 ± 2.4	736 ± 2.4
10000 kPa	809.9 ± 2.4	801.8 ± 2.4	793.6 ± 2.4	785.4 ± 2.4	777.2 ± 2.4	768.8 ± 2.4	760.1 ± 2.4	751.3 ± 2.4	742.1 ± 2.4
15000 kPa	813.6 ± 2.4	805.8 ± 2.4	797.7 ± 2.4	789.7 ± 2.4	781.7 ± 2.4	773.6 ± 2.4	765.2 ± 2.4	756.6 ± 2.4	747.7 ± 2.4
20000 kPa	817.2 ± 2.4	809.5 ± 2.4	801.7 ± 2.4	793.9 ± 2.4	786 ± 2.4	778.1 ± 2.4	769.9 ± 2.4	761.6 ± 2.4	753 ± 2.4
25000 kPa	820.6 ± 2.4	813.1 ± 2.4	805.3 ± 2.4	797.8 ± 2.4	790.1 ± 2.4	782.4 ± 2.4	774.4 ± 2.4	766.4 ± 2.4	758 ± 2.4
30000 kPa	824 ± 2.4	816.6 ± 2.4	809 ± 2.4	801.5 ± 2.4	794 ± 2.4	786.5 ± 2.4	778.7 ± 2.4	770.8 ± 2.4	762.8 ± 2.4
35000 kPa	827.2 ± 2.4	819.9 ± 2.4	812.5 ± 2.4	805.2 ± 2.4	797.8 ± 2.4	790.4 ± 2.4	782.8 ± 2.4	775.1 ± 2.4	767.2 ± 2.4
40000 kPa	830.3 ± 2.4	823.1 ± 2.4	815.9 ± 2.4	808.7 ± 2.4	801.4 ± 2.4	794.2 ± 2.4	786.7 ± 2.4	779.2 ± 2.4	771.5 ± 2.4
45000 kPa	833.3 ± 2.4	826.3 ± 2.4	819.2 ± 2.4	812 ± 2.4	804.9 ± 2.4	797.8 ± 2.4	790.5 ± 2.4	783.1 ± 2.4	775.6 ± 2.4
50000 kPa	836.3 ± 2.4	829.3 ± 2.4	822.3 ± 2.4	815.3 ± 2.4	808.3 ± 2.4	801.3 ± 2.4	794.1 ± 2.4	786.9 ± 2.5	779.5 ± 2.5
55000 kPa	839.1 ± 2.4	832.3 ± 2.4	825.4 ± 2.4	818.5 ± 2.4	811.6 ± 2.4	804.7 ± 2.4	797.7 ± 2.5	790.5 ± 2.5	783.3 ± 2.5
60000 kPa	841.8 ± 2.4	835 ± 2.4	828.1 ± 2.4	821.4 ± 2.4	814.6 ± 2.5	807.8 ± 2.5	800.8 ± 2.5	793.8 ± 2.5	786.7 ± 2.5

CCCCCO [pentan-1-ol]
mass density [kg/m3]
Details	278.15 K	288.15 K	298.15 K	308.15 K	318.15 K	328.15 K	338.15 K	348.15 K	358.15 K
100 kPa	825.2 ± 2.4	818 ± 2.4	810.7 ± 2.4	803.3 ± 2.4	795.8 ± 2.4	788.2 ± 2.4	780.3 ± 2.4	772.3 ± 2.4	763.8 ± 2.4
1000 kPa	825.8 ± 2.4	818.7 ± 2.4	811.3 ± 2.4	804 ± 2.4	796.6 ± 2.4	789 ± 2.4	781.2 ± 2.4	773.1 ± 2.4	764.8 ± 2.4
5000 kPa	828.5 ± 2.4	821.5 ± 2.4	814.2 ± 2.4	807 ± 2.4	799.8 ± 2.4	792.3 ± 2.4	784.8 ± 2.4	776.9 ± 2.4	768.8 ± 2.4
10000 kPa	831.6 ± 2.4	824.8 ± 2.4	817.7 ± 2.4	810.7 ± 2.4	803.6 ± 2.4	796.3 ± 2.4	788.9 ± 2.4	781.2 ± 2.4	773.5 ± 2.4
15000 kPa	834.7 ± 2.4	828 ± 2.4	821 ± 2.4	814 ± 2.4	807.2 ± 2.4	800.1 ± 2.4	792.9 ± 2.4	785.5 ± 2.4	777.9 ± 2.4
20000 kPa	837.6 ± 2.4	831.1 ± 2.4	824.3 ± 2.4	817.5 ± 2.4	810.7 ± 2.4	803.8 ± 2.4	796.7 ± 2.4	789.5 ± 2.4	782.1 ± 2.4
25000 kPa	840.4 ± 2.4	834 ± 2.4	827.3 ± 2.4	820.7 ± 2.4	814 ± 2.4	807.2 ± 2.4	800.3 ± 2.4	793.3 ± 2.4	786.1 ± 2.4
30000 kPa	843.2 ± 2.4	836.9 ± 2.4	830.3 ± 2.4	823.8 ± 2.4	817.3 ± 2.4	810.6 ± 2.4	803.8 ± 2.4	796.9 ± 2.4	789.9 ± 2.4
35000 kPa	845.9 ± 2.4	839.7 ± 2.4	833.2 ± 2.4	826.8 ± 2.4	820.4 ± 2.4	813.8 ± 2.4	807.2 ± 2.4	800.4 ± 2.4	793.6 ± 2.4
40000 kPa	848.6 ± 2.4	842.4 ± 2.4	836 ± 2.4	829.7 ± 2.4	823.4 ± 2.4	817 ± 2.4	810.5 ± 2.4	803.8 ± 2.5	797.1 ± 2.5
45000 kPa	851.1 ± 2.4	845 ± 2.4	838.7 ± 2.4	832.5 ± 2.4	826.3 ± 2.5	820 ± 2.5	813.6 ± 2.5	807.1 ± 2.5	800.5 ± 2.5
50000 kPa	853.6 ± 2.4	847.6 ± 2.4	841.4 ± 2.5	835.3 ± 2.5	829.1 ± 2.5	822.9 ± 2.5	816.6 ± 2.5	810.3 ± 2.5	803.8 ± 2.5
55000 kPa	856.1 ± 2.5	850.1 ± 2.5	844 ± 2.5	838 ± 2.5	831.9 ± 2.5	825.8 ± 2.5	819.6 ± 2.5	813.3 ± 2.5	807 ± 2.5
60000 kPa	858.4 ± 2.5	852.5 ± 2.5	846.4 ± 2.5	840.4 ± 2.5	834.6 ± 2.5	828.4 ± 2.5	822.5 ± 2.5	816.2 ± 2.5	810 ± 2.5
